# Data reported in the supplement of paper PMC10307832.
# Tests used:
# Test in all cases: relative viability (nuclei count vs DMSO), 5 days (fraction); higher = more cells survive
# H3255 = test system: H3255
# Outline: (§1)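 Each reported value is a median over duplicate plates. It expresses relative viability: treated-well nuclei count divided by vehicle-well nuclei count. Lung cancer cell lines in 1536-well plates were dosed by pin tool a day after seeding, alone with one drug or with a fixed anchor-drug dose plus five library-drug doses (not always all listed) in √10 steps, and nuclei were counted after 5 days.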
# NCI-H2126 = test system: NCI-H2126
# Outline: as §1
# LCLC-97TM1 = test system: LCLC-97TM1
# Outline: as §1
# NCI-H647 = test system: NCI-H647
# Outline: as §1
# HOP-62 = test system: HOP-62
# Outline: as §1
# LXF-289 = test system: LXF-289
# Outline: as §1
# NCI-H1993 = test system: NCI-H1993
# Outline: as §1
# NCI-H2023 = test system: NCI-H2023
# Outline: as §1
# NCI-H2009 = test system: NCI-H2009
# Outline: as §1
# NCI-H322M = test system: NCI-H322M
# Outline: as §1
# NCI-H1734 = test system: NCI-H1734
# Outline: as §1
# EPLC-272H = test system: EPLC-272H
# Outline: as §1
# NCI-H1563 = test system: NCI-H1563
# Outline: as §1
# NCI-H727 = test system: NCI-H727
# Outline: as §1
# NCI-H2085 = test system: NCI-H2085
# Outline: as §1
# NCI-H2347 = test system: NCI-H2347
# Outline: as §1
# NCI-H661 = test system: NCI-H661
# Outline: as §1
# PC-14 = test system: PC-14
# Outline: as §1
# SW 1573 = test system: SW 1573
# Outline: as §1
# NCI-H1915 = test system: NCI-H1915
# Outline: as §1
# EMC-BAC-2 = test system: EMC-BAC-2
# Outline: as §1
# SK-LU-1 = test system: SK-LU-1
# Outline: as §1
smiles,measurement,setting,value
Cc1sc2c(c1C)C(c1ccc(Cl)cc1)=N[C@@H](CC(=O)OC(C)(C)C)c1nnc(C)n1-2 [JQ1] + CC(C)C[C@H](NC(=O)[C@H](Cc1ccccc1)NC(=O)c1cnccn1)B(O)O [Bortezomib] (partner 0.002 µM),relative viability,H3255; first compound 0.04 µM,0.628
same,relative viability,H3255; first compound 0.1265 µM,0.553
same,relative viability,H3255; first compound 0.4 µM,0.747
same,relative viability,H3255; first compound 1.265 µM,0.306
same,relative viability,H3255; first compound 4 µM,0.278
same,relative viability,NCI-H2126; first compound 0.04 µM,1.08
same,relative viability,NCI-H2126; first compound 0.1265 µM,1.01
same,relative viability,NCI-H2126; first compound 0.4 µM,1.14
same,relative viability,NCI-H2126; first compound 1.265 µM,0.981
same,relative viability,NCI-H2126; first compound 4 µM,0.966
same,relative viability,LCLC-97TM1; first compound 0.04 µM,0.492
same,relative viability,LCLC-97TM1; first compound 0.1265 µM,0.533
same,relative viability,LCLC-97TM1; first compound 0.4 µM,0.336
same,relative viability,LCLC-97TM1; first compound 1.265 µM,0.0995
same,relative viability,LCLC-97TM1; first compound 4 µM,0.0548
same,relative viability,NCI-H647; first compound 0.04 µM,0.678
same,relative viability,NCI-H647; first compound 0.1265 µM,0.521
same,relative viability,NCI-H647; first compound 0.4 µM,0.346
same,relative viability,NCI-H647; first compound 1.265 µM,0.0716
same,relative viability,NCI-H647; first compound 4 µM,0.102
same,relative viability,HOP-62; first compound 0.04 µM,0.447
same,relative viability,HOP-62; first compound 0.1265 µM,0.641
same,relative viability,HOP-62; first compound 0.4 µM,0.515
same,relative viability,HOP-62; first compound 1.265 µM,0.11
same,relative viability,HOP-62; first compound 4 µM,0.111
same,relative viability,LXF-289; first compound 0.04 µM,0.977
same,relative viability,LXF-289; first compound 0.1265 µM,0.887
same,relative viability,LXF-289; first compound 0.4 µM,0.865
same,relative viability,LXF-289; first compound 1.265 µM,0.894
same,relative viability,LXF-289; first compound 4 µM,0.719
same,relative viability,NCI-H1993; first compound 0.04 µM,1.08
same,relative viability,NCI-H1993; first compound 0.1265 µM,1.13
same,relative viability,NCI-H1993; first compound 0.4 µM,1.04
same,relative viability,NCI-H1993; first compound 1.265 µM,0.738
same,relative viability,NCI-H1993; first compound 4 µM,0.458
same,relative viability,NCI-H2023; first compound 0.04 µM,0.966
same,relative viability,NCI-H2023; first compound 0.1265 µM,0.57
same,relative viability,NCI-H2023; first compound 0.4 µM,0.437
same,relative viability,NCI-H2023; first compound 1.265 µM,0.263
same,relative viability,NCI-H2023; first compound 4 µM,0.193
same,relative viability,NCI-H2009; first compound 0.04 µM,0.947
same,relative viability,NCI-H2009; first compound 0.1265 µM,0.526
same,relative viability,NCI-H2009; first compound 0.4 µM,0.262
same,relative viability,NCI-H2009; first compound 1.265 µM,0.172
same,relative viability,NCI-H2009; first compound 4 µM,0.197
same,relative viability,NCI-H322M; first compound 0.04 µM,1.33
same,relative viability,NCI-H322M; first compound 0.1265 µM,1.24
same,relative viability,NCI-H322M; first compound 0.4 µM,1.35
same,relative viability,NCI-H322M; first compound 1.265 µM,1.04
same,relative viability,NCI-H322M; first compound 4 µM,0.94
same,relative viability,NCI-H1734; first compound 0.04 µM,0.967
same,relative viability,NCI-H1734; first compound 0.1265 µM,0.788
same,relative viability,NCI-H1734; first compound 0.4 µM,0.878
same,relative viability,NCI-H1734; first compound 1.265 µM,0.597
same,relative viability,NCI-H1734; first compound 4 µM,0.474
same,relative viability,EPLC-272H; first compound 0.04 µM,0.915
same,relative viability,EPLC-272H; first compound 0.1265 µM,0.911
same,relative viability,EPLC-272H; first compound 0.4 µM,0.989
same,relative viability,EPLC-272H; first compound 1.265 µM,0.414
same,relative viability,EPLC-272H; first compound 4 µM,0.367
same,relative viability,NCI-H1563; first compound 0.04 µM,0.909
same,relative viability,NCI-H1563; first compound 0.1265 µM,0.619
same,relative viability,NCI-H1563; first compound 0.4 µM,0.642
same,relative viability,NCI-H1563; first compound 1.265 µM,0.544
same,relative viability,NCI-H1563; first compound 4 µM,0.621
same,relative viability,NCI-H727; first compound 0.04 µM,0.756
same,relative viability,NCI-H727; first compound 0.1265 µM,1.01
same,relative viability,NCI-H727; first compound 0.4 µM,0.588
same,relative viability,NCI-H727; first compound 1.265 µM,0.38
same,relative viability,NCI-H727; first compound 4 µM,0.395
same,relative viability,NCI-H2085; first compound 0.04 µM,0.999
same,relative viability,NCI-H2085; first compound 0.1265 µM,0.861
same,relative viability,NCI-H2085; first compound 0.4 µM,0.893
same,relative viability,NCI-H2085; first compound 1.265 µM,0.61
same,relative viability,NCI-H2085; first compound 4 µM,0.564
same,relative viability,NCI-H2347; first compound 0.04 µM,1.13
same,relative viability,NCI-H2347; first compound 0.1265 µM,0.934
same,relative viability,NCI-H2347; first compound 0.4 µM,0.841
same,relative viability,NCI-H2347; first compound 1.265 µM,0.564
same,relative viability,NCI-H2347; first compound 4 µM,0.404
same,relative viability,NCI-H661; first compound 0.04 µM,0.783
same,relative viability,NCI-H661; first compound 0.1265 µM,0.83
same,relative viability,NCI-H661; first compound 0.4 µM,0.576
same,relative viability,NCI-H661; first compound 1.265 µM,0.431
same,relative viability,NCI-H661; first compound 4 µM,0.537
same,relative viability,PC-14; first compound 0.04 µM,0.811
same,relative viability,PC-14; first compound 0.1265 µM,0.901
same,relative viability,PC-14; first compound 0.4 µM,0.888
same,relative viability,PC-14; first compound 1.265 µM,0.346
same,relative viability,PC-14; first compound 4 µM,0.201
same,relative viability,SW 1573; first compound 0.04 µM,1.13
same,relative viability,SW 1573; first compound 0.1265 µM,1.03
same,relative viability,SW 1573; first compound 0.4 µM,0.863
same,relative viability,SW 1573; first compound 1.265 µM,0.582
same,relative viability,SW 1573; first compound 4 µM,0.351
same,relative viability,NCI-H1915; first compound 0.04 µM,1.02
same,relative viability,NCI-H1915; first compound 0.1265 µM,0.706
same,relative viability,NCI-H1915; first compound 0.4 µM,0.961
same,relative viability,NCI-H1915; first compound 1.265 µM,0.678
same,relative viability,NCI-H1915; first compound 4 µM,0.642
same,relative viability,EMC-BAC-2; first compound 0.04 µM,1.09
same,relative viability,EMC-BAC-2; first compound 0.1265 µM,0.961
same,relative viability,EMC-BAC-2; first compound 0.4 µM,0.91
same,relative viability,EMC-BAC-2; first compound 1.265 µM,0.621
same,relative viability,EMC-BAC-2; first compound 4 µM,0.544
same,relative viability,SK-LU-1; first compound 0.04 µM,1.37
same,relative viability,SK-LU-1; first compound 0.1265 µM,0.693
same,relative viability,SK-LU-1; first compound 0.4 µM,0.941
same,relative viability,SK-LU-1; first compound 1.265 µM,0.28
same,relative viability,SK-LU-1; first compound 4 µM,0.205
